Measured values reported in patent US7423015B1, “Antihelminthic drugs as a treatment for hyperproliferative diseases” (Board of Regents, The University of Texas System, priority 2001, dated 2008).

What was measured:
[1] = tested on: H460 NSCLC cell lines resistant to taxol or vinorelbine; assay: Cell death of microtubule drug resistant cells; format: cell-based, human; details: MZ 0.5 μM, 48 h time point
Protocol: The inventors have developed H460 NSCLC cell lines that are resistant to the microtubule drugs: taxol (7 nM) or vinorelbine (9 nM). These cell lines show a marked cross resistance to each other. For example Taxol resistant cells show resistance to Vinorelbine mediated cell death. […] Thus, MZ can be effectively used for killing multi-drug resistant (MDR) cells in a clinical setting.

[2] = tested on: tumor vascularity of H460 xenografts (CD31); assay: Immunohistochemical analysis of CD31 in H460 tumors; format: in vivo, nu/nu mice; details: H460 xenografts in nude mice
Protocol: Subcutaneous H460 tumors established in nu/nu mice that were either not treated or treated with MZ were harvested and fixed in 4% buffered formalin, paraffin embedded, and cut as […] thick sections. Tissue sections were stained for CD31 expression using rat anti-mouse CD31 antibody (Pharmingen) as previously described with slight modifications. Briefly, following deparafinzation and rehydration, tissue sections were treated with 0.3% H2O2 in methanol for 30 min to block endogenous peroxidase activity and were subsequently incubated with normal rat serum for 30 min at room temperature. Following incubation, slides were treated with protease for 15 min followed with rat monoclonal anti-CD31 antibody (1:1000 dilution) for 60 minutes. After 30 min incubation with anti-rat secondary antibody (provided with ABC kit, Vector) CD31 in tissues was detected with DAB by enhancement with avidin-biotin reaction ABC kit. The slides were counterstained with hematoxylin and then mounted with Aqua-mount (Lerner Labs, Pittsburgh, Pa.). The number of vascular areas staining positive for CD31 were analyzed under bright-field microscopy. A total of at least five fields per specimen were analyzed. In all the staining procedures, appropriate negative controls were included. […]

normal fibroblast = assay: In vitro proliferation assay with MZ, cell count; format: cell-based, human; details: 24 h treatment
Protocol: Cells of the human non-small cell lung cancer (NSCLC) cell line A549, WI-38 normal fibroblast (American Type Culture Collection, Rockville, Md.) and H460 (a gift from Drs. Adi Gazdar and John Minna. University of Texas Southwestern Medical Center, Dallas) were seeded on culture plates (2×10^4 cells/well) in F12 and RPMI medium, respectively, supplemented with 10% heat-inactivated fetal calf serum and antibiotics. HUVEC were grown in medium supplemented with growth factor (Clonetics, San Diego). The cells were then exposed to MZ dissolved in dimethyl sulfoxide (DMSO) when grown to 40-50% confluence. Cell growth was monitored by counting the cells using a hemocytometer.
Initially, the inventors examined the effect of MZ on proliferation of human lung cancer cell lines (H460 and A549) in vitro.

[3] = tested on: Ad-luciferase transgene expression; assay: Ad-luciferase transgene expression with or without MZ; format: cell-based; details: six cell lines, MZ at 50 ng/ml, 48 hours
Protocol: FIG. 8. Expression of Ad-luciferase in H1299 cells with and without MZ. H1299 cells were treated with media (UT) or Ad-luciferase at increasing multiplicities of infection, with or without MZ at 50 ng/ml. Forty-eight hours later, cells were harvested and luciferase activity assayed.
FIG. 9. Expression of Ad-luciferase in A549 cells with and without MZ. A549 cells were plated in 6-well dishes and either treated with media (UT) or Ad-luciferase at increasing multiplicities of infection, with or without MZ at 50 ng/ml. Forty-eight hours later, cells were harvested and luciferase activity assayed.
Next, a series of six cell lines were transfected with Ad-luciferase at increasing multiplicities of infection, with or without MZ at 50 ng/ml.

[4] = tested on: adenovirus expressed MDA-7; assay: Adenovirus expressed MDA-7 levels; format: cell-based
A549 lung cancer cells = assay: Apoptotic cells by TdT-FACS analysis; format: cell-based, human
Protocol: Approximately 10^4 cells were seeded on tissue culture plates 24 h before drug treatment or adenoviral infection. […] FIG. 4C—A549 lung cancer cells were examined for apoptotic cell death 48 h after FZ and Ad5p53 treatment alone or in combination. Percent apoptotic cells were measured by TdT-FACS analysis.
For TdT FACS analysis control and treated cells were collected by trypsinization, washed in PBS, and fixed overnight in 70% ethanol. The next day, cells were rehydrated in PBS for 30 min, centrifuged, and resuspended in PBS. For DNA analysis, propidium iodide (PI) was added at 50 μg/ml, and the cells were incubated in the presence of RNase A (15 mg/ml for 30 min at 37° C.). To detect DNA strand breaks associated with apoptosis, cells were fixed in 1% formaldehyde for 15 min at 4° C., rinsed in PBS, and stored at 4° C. in ice-cold 70% ethanol. Before staining, the cells were washed in PBS, and 10^6 cells were resuspended in 50 ml of cacodylated buffer containing 100 μ/ml TdT enzyme and 0.5 nM biotin-16 dUTP for 30 min at 37° C. Cells were washed in PBS and resuspended in 100 ml of 4×SSC containing 2.5 mg/ml fluoresceinated avidin, 0.1% Triton X-100, and 5% dry fat milk and then incubated at room temperature for 30 min in the dark. […] Flow cytometry was carried out in a fluorescence-activated cell sorter (Epics Elite; Coulter, Inc., Hialeah, Fla.).

[5] = tested on: H1299 (p53 deleted), H322 (p53 mutated), H460 (wt p53) and A549 (wt p53) human lung cancer cell lines; assay: 3-day growth assay with Ad5p53 and FZ; format: cell-based
Protocol: In those assays, growing, cultured cells were trypsinized and plated (10^4 cells/well) and then infected the next day with Ad5p53 at 1 MOI. Viral supernatant was then added, after which cells were incubated for 24 h, washed with PBS, fed fresh medium or incubated with medium containing FZ for 24 h, washed again, and fed fresh medium. In contrast, uninfected cells (controls) were treated with FZ for 24 h, washed with PBS, fed fresh medium, and then subjected to a 3-day growth assay (FIG. 4A).

Row | Compound | cell death [1] | neovascularization (blood vessel density, CD31) [2] | effect on growth of normal fibroblast (normal fibroblast) | transgene expression [3] | levels of adenovirus expressed MDA-7 [4] | apoptotic cells (A549 lung cancer cells; 48 h after combination treatment FZ and Ad5p53) | apoptotic cells (A549 lung cancer cells; FZ treatment alone) | cell growth after FZ alone, p53-mutated and deleted cells ([5]; 0.05 μg/ml FZ for 24 h) | growth inhibition after FZ alone, wt p53 H460 cells ([5]; 0.05 μg/ml FZ for 24 h) | cell growth after Ad5p53 plus FZ ([5]; Ad5p53-transduced cells (1 MOI, 24 h) treated with FZ for 24 h, all four cell lines, 3-days growth assay)
1 | COC(=O)Nc1nc2ccc(C(=O)c3ccccc3)cc2[nH]1 [Mebendazole, Methyl 5-benzoylbenzimidazole-2-carbamate] | 40-70% | profoundly reduced | no effect | significant increases | increased levels | – | – | – | – | –
2 | COC(=O)Nc1nc2ccc(Sc3ccccc3)cc2[nH]1 [Fenbendazole, methy 5-(phenylthio)-2-benzimidazole-2-carbamate] | – | – | – | – | – | 30% | 11% | not growth inhibited | significantly so | striking growth inhibition
